Calls of active or inactive are those of the source. No cut-off for these calls is given here.
Key:
[1] = test system: Human immunodeficiency virus 1; assay: Antiviral activity against HIV1 HT92596 infected in human PBMC after 5 days by human JC53BL cell-based beta-galactosidase reporter gene assay; type: functional, organism-based; details: Human immunodeficiency virus 1, HT92596, JC53BL, 120 h
[2] = test system: Human immunodeficiency virus 1; assay: Resistance ratio of IC50 for MLV pseudotyped HIV1 NL4-3 expressing integrase T66I/S153Y mutant to IC50 for MLV pseudotyped HIV1 NL4-3 expressing wild type integrase; type: functional
[3] = Clearance in rat hepatocytes assessed per million of cells; type: ADME, cell-based, Hepatocyte; details: read-out: CLH
[4] = test system: Human immunodeficiency virus 1; assay: Resistance ratio of IC50 for MLV pseudotyped HIV1 NL4-3 expressing integrase G140A mutant to IC50 for MLV pseudotyped HIV1 NL4-3 expressing wild type integrase; type: functional
[5] = test system: Human immunodeficiency virus 1; assay: Resistance ratio of IC50 for MLV pseudotyped HIV1 NL4-3 expressing integrase G140S/Q148h mutant to IC50 for MLV pseudotyped HIV1 NL4-3 expressing wild type integrase; type: functional
[6] = Clearance in dog liver microsomes assessed per mg of protein in presence of UDPGA; type: ADME, Canis lupus familiaris; details: read-out: CLH
[7] = test system: Human immunodeficiency virus 1; assay: Antiviral activity against HIV1 BR92004 infected in human PBMC after 5 days by human JC53BL cell-based beta-galactosidase reporter gene assay; type: functional, organism-based; details: Human immunodeficiency virus 1, BR92004, JC53BL, 120 h
[8] = test system: Human immunodeficiency virus 1; assay: Resistance ratio of IC50 for MLV pseudotyped HIV1 NL4-3 expressing integrase V72I/F121Y/T125K mutant to IC50 for MLV pseudotyped HIV1 NL4-3 expressing wild type integrase; type: functional
[9] = test system: Human immunodeficiency virus 1; assay: Resistance ratio of IC50 for MLV pseudotyped HIV1 NL4-3 expressing integrase T97A mutant to IC50 for MLV pseudotyped HIV1 NL4-3 expressing wild type integrase; type: functional
[10] = test system: Human immunodeficiency virus 1; assay: Antiviral activity against HIV1 CMU06 infected in human PBMC after 5 days by human JC53BL cell-based beta-galactosidase reporter gene assay; type: functional, organism-based; details: Human immunodeficiency virus 1, CMU06, JC53BL, 120 h
Rattus norvegicus [11] = assay: Clearance in rat at 2 mg/kg, po and 2 mg/kg, iv; type: ADME, organism-based; details: in vivo
[12] = Volume of distribution at steady state in rat at 2 mg/kg, po and 2 mg/kg, iv; type: ADME, organism-based; details: in vivo, read-out: Vdss
[13] = Lipophilicity, log D of the compound; type: physicochemical; details: octanol/water
[14] = test system: Human immunodeficiency virus 1; assay: Resistance ratio of IC50 for MLV pseudotyped HIV1 NL4-3 expressing integrase F121Y mutant to IC50 for MLV pseudotyped HIV1 NL4-3 expressing wild type integrase; type: functional
Rattus norvegicus [15] = assay: Toxicity in rat assessed as histopathological abnormalities at 25 times antiviral IC50 administered for 7 days; type: organism-based; details: in vivo, 168 h
[16] = test system: Human immunodeficiency virus 1; assay: Antiviral activity against HIV1 UG94118 infected in human PBMC after 5 days by human JC53BL cell-based beta-galactosidase reporter gene assay; type: functional, organism-based; details: Human immunodeficiency virus 1, UG94118, JC53BL, 120 h
[17] = Half life in rat at 2 mg/kg, po and 2 mg/kg, iv; type: ADME, organism-based; details: in vivo
[18] = Clearance in rat liver microsomes assessed per mg of protein; type: ADME; details: read-out: CLH
[19] = test system: Human immunodeficiency virus 1; assay: Resistance ratio of IC50 for MLV pseudotyped HIV1 NL4-3 expressing integrase Q148H mutant to IC50 for MLV pseudotyped HIV1 NL4-3 expressing wild type integrase; type: functional
[20] = test system: Human immunodeficiency virus 1; assay: Resistance ratio of IC50 for MLV pseudotyped HIV1 NL4-3 expressing integrase E92Q mutant to IC50 for MLV pseudotyped HIV1 NL4-3 expressing wild type integrase; type: functional
[21] = test system: Human immunodeficiency virus 1; assay: Resistance ratio of IC50 for MLV pseudotyped HIV1 NL4-3 expressing integrase G140S mutant to IC50 for MLV pseudotyped HIV1 NL4-3 expressing wild type integrase; type: functional
[22] = test system: Human immunodeficiency virus 1; assay: Resistance ratio of IC50 for MLV pseudotyped HIV1 NL4-3 expressing integrase E92Q/N155H mutant to IC50 for MLV pseudotyped HIV1 NL4-3 expressing wild type integrase; type: functional
[23] = test system: Human immunodeficiency virus 1; assay: Antiviral activity against HIV1 NL4-3 infected in human PBMC after 5 days by human JC53BL cell-based beta-galactosidase reporter gene assay; type: functional, organism-based; details: Human immunodeficiency virus 1, NL4-3, JC53BL, 120 h
[24] = test system: Human immunodeficiency virus 1; assay: Antiviral activity against HIV1 BaL infected in human PBMC after 5 days by human JC53BL cell-based beta-galactosidase reporter gene assay; type: functional, organism-based; details: Human immunodeficiency virus 1, BaL, 120 h
[25] = Volume of distribution at steady state in healthy human at 100 ug, iv; type: ADME, organism-based; details: in vivo, read-out: Vdss
Canis familiaris = assay: Clearance in dog at 0.1 mg/kg, iv; type: ADME, organism-based, Canis lupus familiaris; set-up: dose 0.1 mg/kg, route intravenous; details: in vivo
[26] = Selectivity ratio of CC50 for HIV1 NL4-3 infected in human MT2 cells to IC50 for human MT2 cells; type: ADME, cell-based; details: read-out: Ratio CC50/IC50
[27] = test system: Human immunodeficiency virus 1; assay: Antiviral activity against HIV1 HT92599 infected in human PBMC after 5 days by human JC53BL cell-based beta-galactosidase reporter gene assay; type: functional, organism-based; details: Human immunodeficiency virus 1, HT92599, JC53BL, 120 h
[28] = Drug metabolism in iv dosed dog urine; type: ADME, organism-based, Canis lupus familiaris; details: in vivo
[29] = test system: Human immunodeficiency virus 1; assay: Antiviral activity against HIV1 UG92037 infected in human PBMC after 5 days by human JC53BL cell-based beta-galactosidase reporter gene assay; type: functional, organism-based; details: Human immunodeficiency virus 1, UG92037, JC53BL, 120 h
[30] = test system: Human immunodeficiency virus 1; assay: Resistance ratio of IC50 for MLV pseudotyped HIV1 NL4-3 expressing integrase Q148K mutant to IC50 for MLV pseudotyped HIV1 NL4-3 expressing wild type integrase; type: functional
[31] = test system: Human immunodeficiency virus 1; assay: Resistance ratio of IC50 for MLV pseudotyped HIV1 NL4-3 expressing integrase S153Y mutant to IC50 for MLV pseudotyped HIV1 NL4-3 expressing wild type integrase; type: functional
[32] = Plasma protein binding in rat; type: ADME, cell-free; details: read-out: PPB
[33] = Clearance in rat liver microsomes assessed per mg of protein in presence of UDPGA; type: ADME; details: read-out: CLH
[34] = Plasma protein binding in dog; type: ADME, cell-free, Canis lupus familiaris; details: read-out: PPB (converted)
[35] = test system: Human immunodeficiency virus 1; assay: Antiviral activity against HIV1 SF162 infected in human PBMC after 5 days by human JC53BL cell-based beta-galactosidase reporter gene assay; type: functional, organism-based; details: Human immunodeficiency virus 1, SF162, JC53BL, 120 h
[36] = test system: Human immunodeficiency virus 1; assay: Antiviral activity against HIV1 ZA97003 infected in human PBMC after 5 days by human JC53BL cell-based beta-galactosidase reporter gene assay; type: functional, organism-based; details: Human immunodeficiency virus 1, ZA97003, JC53BL, 120 h
[37] = Half life in healthy human at 100 ug, iv; type: ADME, organism-based; details: in vivo
[38] = Inhibition of DNA polymerase beta (unknown origin); set-up: species or system Homo sapiens
[39] = Oral bioavailability in rat at 2 mg/kg; type: ADME, organism-based; details: in vivo
[40] = Volume of distribution at steady state in dog at 0.1 mg/kg, iv; type: ADME, organism-based, Canis lupus familiaris; set-up: dose 0.1 mg/kg, route intravenous; details: in vivo, read-out: Vdss
[41] = test system: Human immunodeficiency virus 1; assay: Resistance ratio of IC50 for MLV pseudotyped HIV1 NL4-3 expressing integrase N155H mutant to IC50 for MLV pseudotyped HIV1 NL4-3 expressing wild type integrase; type: functional
[42] = Clearance in dog hepatocytes assessed per million of cells; type: ADME, cell-based, Canis lupus familiaris, Hepatocyte; details: read-out: CLH
[43] = Intrinsic clearance in human liver microsomes assessed per mg of protein by LC-MS/MS analysis; type: ADME; details: read-out: CLH
[44] = Inhibition of DNA polymerase gamma (unknown origin); set-up: species or system Homo sapiens
[45] = test system: Human immunodeficiency virus 1; assay: Antiviral activity against HIV1 NL4-3 infected in human MT2 cells after 3 days by human JC53BL cell-based beta-galactosidase reporter gene assay; type: functional, organism-based; details: Human immunodeficiency virus 1, NL4-3, JC53BL, 72 h
[46] = Intrinsic clearance in human hepatocytes assessed assessed per million of cells by LC-MS/MS analysis; type: ADME, cell-based, Hepatocyte; details: read-out: CLH
[47] = Plasma protein binding in human; type: ADME, cell-free; details: read-out: PPB (converted)
[48] = test system: Human immunodeficiency virus 1; assay: Resistance ratio of IC50 for MLV pseudotyped HIV1 NL4-3 expressing integrase E138A mutant to IC50 for MLV pseudotyped HIV1 NL4-3 expressing wild type integrase; type: functional
[49] = Cytotoxicity against human MT2 cells after 3 days by CellTitre-Glo assay; type: cell-based
[50] = Clearance in healthy human at 100 ug, iv; type: ADME, organism-based; details: in vivo
[51] = test system: Human immunodeficiency virus 1; assay: Resistance ratio of IC50 for MLV pseudotyped HIV1 NL4-3 expressing integrase T125K/F121Y mutant to IC50 for MLV pseudotyped HIV1 NL4-3 expressing wild type integrase; type: functional
[52] = test system: Human immunodeficiency virus 1; assay: Antiviral activity against HIV1 infected in human MT2 cells assessed as emergence of breakthrough at 10 times IC50; type: functional, organism-based
[53] = Partition coefficient, pKa of the compound; type: physicochemical; details: octanol/water
[54] = Activity at UGT1A2 (unknown origin) assessed as metabolite metabolism; type: ADME; details: human
[55] = test system: Human immunodeficiency virus 1; assay: Resistance ratio of IC50 for MLV pseudotyped HIV1 NL4-3 expressing integrase V72I/F121Y/T125K/V151L mutant to IC50 for MLV pseudotyped HIV1 NL4-3 expressing wild type integrase; type: functional
[56] = Intrinsic clearance in human liver microsomes assessed per mg of protein by LC-MS/MS analysis in presence of UDPGA; type: ADME; details: read-out: CLH
[57] = test system: Human immunodeficiency virus 1; assay: Inhibition of MLV pseudotyped HIV1 NL4-3 expressing integrase G140S/Q148K mutant; type: functional, organism-based
[58] = Half life in dog at 0.1 mg/kg, iv; type: ADME, organism-based, Canis lupus familiaris; set-up: dose 0.1 mg/kg, route intravenous; details: in vivo
[59] = Inhibition of DNA polymerase alpha (unknown origin); set-up: species or system Homo sapiens
[60] = molecular target: Human immunodeficiency virus type 1 integrase (Human immunodeficiency virus 1, UniProt Q7ZJM1); assay: Inhibition of HIV1 HXB2 full length amino terminal 6-HIs tagged integrase expressed in Escherichia coli using [3H]thymidine-labeled DNA/biotinylated ds-DNA as substrate assessed as inhibition of strand transfer after 50 mins by scintillation proximity assay
Chain of Human immunodeficiency virus type 1 integrase (Q7ZJM1 whole entry): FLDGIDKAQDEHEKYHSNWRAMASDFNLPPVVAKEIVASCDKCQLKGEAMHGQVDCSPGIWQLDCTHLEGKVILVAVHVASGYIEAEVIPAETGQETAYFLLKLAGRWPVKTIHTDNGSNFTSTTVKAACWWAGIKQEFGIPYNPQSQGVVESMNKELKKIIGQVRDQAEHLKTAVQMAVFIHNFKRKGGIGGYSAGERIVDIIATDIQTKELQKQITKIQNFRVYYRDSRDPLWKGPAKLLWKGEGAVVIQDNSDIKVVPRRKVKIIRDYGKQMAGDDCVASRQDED

## COc1cc(F)ccc1Cn1ccc2c3c(ncc21)C(=O)N(O)CC3 [PF-04776548]
[1]
  EC50: 0.84 nM
[2]
  Ratio IC50: <10
[3]
  hepatocyte CLint: 33 µL/min/1e6 cells
[4]
  Ratio IC50: <10
[5]
  Ratio IC50: <10
[6]
  microsomal CLint: 21 µL/min/mg
[7]
  EC50: 0.44 nM
[8]
  Ratio IC50: <10
[9]
  Ratio IC50: <10
[10]
  EC50: 0.61 nM
Rattus norvegicus [11]
  clearance: 98 mL/min/kg
[12]
  Vd: 3 L/kg
[13]
  logD: 2.1
[14]
  Ratio IC50: <10
Rattus norvegicus [15]
  Activity: Non-toxic
[16]
  EC50: 6.68 nM
[17]
  half-life: 0.3 h
[18]
  microsomal CLint: 26 µL/min/mg
[19]
  Ratio IC50: <10
[20]
  Ratio IC50: <10
[21]
  Ratio IC50: <10
[22]
  Ratio IC50: <10
[23]
  EC50: 0.48 nM
[24]
  EC50: 2.22 nM
[25]
  Vd: 5.7 L/kg
Canis familiaris
  clearance: 24 mL/min/kg
[26]
  selectivity ratio: 4800
[27]
  EC50: 0.37 nM
[28]
  Drug metabolism: Active
[29]
  EC50: 0.84 nM
[30]
  Ratio IC50: <10
[31]
  Ratio IC50: <10
[32]
  fraction unbound: 0.09
[33]
  microsomal CLint: 43 µL/min/mg
[34]
  fraction unbound: 0.16
[35]
  EC50: 1.68 nM
[36]
  EC50: 0.15 nM
[37]
  half-life: 2.8 h
[38]
  IC50: > 100000 nM
[39]
  bioavailability: 1%
[40]
  Vd: 2 L/kg
[41]
  Ratio IC50: <10
[42]
  hepatocyte CLint: 17 µL/min/1e6 cells
[43]
  microsomal CLint: 8.3 µL/min/mg
[44]
  IC50: 7100 nM
[45]
  IC50: 1.5 nM
[46]
  hepatocyte CLint: 32.7 µL/min/1e6 cells
[47]
  fraction unbound: 0.08
[48]
  Ratio IC50: <10
[49]
  CC50 at 72 h: 7360 nM
[50]
  clearance: 18 mL/min/kg
[51]
  Ratio IC50: <10
[52]
  Activity: Active
[53]
  pKa: 7.6
[54]
  Activity: Not Active
[55]
  Ratio IC50: <10
[56]
  microsomal CLint: 28 µL/min/mg
[57]
  inhibition: inactive
[58]
  half-life: 1.2 h
[59]
  IC50: > 100000 nM
[60]
  IC50: 40.5 nM

From ChEMBL document CHEMBL3217509, “Discovery of an HIV integrase inhibitor with an excellent resistance profile” (Medchemcomm, 2013)
